Data reported in PMC10291552, “Computational Design, Synthesis, and Biological Evaluation of Diimidazole Analogues Endowed with Dual PCSK9/HMG-CoAR-Inhibiting Activity” (Journal of Medicinal Chemistry, 2023).
Values after ≈ are worked out from the molar mass of the structure shown. Values joined by “and” are separate entries in the source; they are usually repeats but may differ in a detail not shown here. Equal entries are not always repeated. Where two headings read alike, the source gives them in different places.

Tests used:
[1] = target: T1, PCSK9/LDLR (Homo sapiens, UniProt Q8NBP7); details: cited from earlier work
T1 construct: purchased CircuLex (CycLex Co., Nagano, Japan)
T1 sequence (Q8NBP7 153-692): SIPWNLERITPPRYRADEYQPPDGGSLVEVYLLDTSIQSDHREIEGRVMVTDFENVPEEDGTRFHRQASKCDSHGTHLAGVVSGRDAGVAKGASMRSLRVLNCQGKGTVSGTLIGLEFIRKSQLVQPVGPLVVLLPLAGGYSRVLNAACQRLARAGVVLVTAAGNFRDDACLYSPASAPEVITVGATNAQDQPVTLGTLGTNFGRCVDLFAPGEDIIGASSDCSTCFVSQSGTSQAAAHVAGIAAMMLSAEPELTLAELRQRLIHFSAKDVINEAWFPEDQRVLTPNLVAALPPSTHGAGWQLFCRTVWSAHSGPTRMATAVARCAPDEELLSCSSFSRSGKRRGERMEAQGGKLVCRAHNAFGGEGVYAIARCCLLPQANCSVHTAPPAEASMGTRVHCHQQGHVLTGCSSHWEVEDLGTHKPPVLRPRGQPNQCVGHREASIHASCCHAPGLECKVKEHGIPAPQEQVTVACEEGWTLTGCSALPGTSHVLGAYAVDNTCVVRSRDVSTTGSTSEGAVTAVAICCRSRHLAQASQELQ
T1 sequence (Q8NBP7 31-152 limits assumed): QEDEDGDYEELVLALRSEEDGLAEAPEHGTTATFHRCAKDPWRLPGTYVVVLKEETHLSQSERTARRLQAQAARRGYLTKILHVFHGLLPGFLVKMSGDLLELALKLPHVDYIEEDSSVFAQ

[2] = target: T1, PCSK9/LDLR; assay: In vitro PCSK9-LDLR binding assay (CircuLex/CycLex kit); details: for IC50: mean ± SD, three independent experiments, Hill slope fixed at −1
Protocol: Diimidazole analogues (0.1–1 × 10^6 nM) were tested using the in vitro PCSK9-LDLR binding assay (CycLex Co., Nagano, Japan) following the manufacturer’s instructions and with the conditions already optimized.[15] Briefly, the plates were pre-coated with a recombinant LDLR-AB domain containing the binding site of PCSK9. Before starting the assay, the tested analogues and/or the vehicle in DMSO were sonicated at 37 °C, diluted in the reaction buffer, and added in microcentrifuge tubes. Afterward, the reaction mixtures were added in each well of the microplate, and the reaction was started by adding His-tagged PCSK9 solution (3 μL). The microplate was allowed to incubate for 2 h at room-temperature (RT) shaking at 300 rpm on an orbital microplate shaker. Subsequently, the wells were washed 4 times with the wash buffer. After the last wash, the biotinylated anti-His-tag monoclonal antibody (100 μL) was added and incubated at RT for 1 h shaking at 300 rpm. After incubation, the wells were washed 4 times with wash buffer. After the last wash, 100 μL of HRP-conjugated streptavidin were added, and the plate was incubated for 20 min at RT. After incubation, the wells were washed 4 times with wash buffer. Finally, the substrate reagent (tetra-methylbenzidine) was added, and the plate was incubated for 10 min at RT shaking at ca. 300 rpm. The reaction was stopped with 2.0 M sulfuric acid, and the absorbance at 450 nm was measured using a Synergy H1 fluorescent plate reader (Winooski, VT, USA).
All the data sets were checked for normal distribution by D’Agostino and Pearson tests. Since they are all normally disturbed with p values of […], we proceeded with statistical analyses of one-way ANOVA followed by Tukey’s post hoc test using Graphpad Prism 9 (San Diego, CA, USA). Values were reported as means ± s.d.; p values of <0.05 were considered to be significant. The IC50 values of samples inhibiting PCSK9-LDLR binding were evaluated by using the log(inhibitor) vs response model of GraphPad Prism 9 (San Diego, CA, USA). This model assumes that the dose–response curves has a standard slope, equal to a Hill slope (or slope factor) of −1.0. This is the slope expected when a ligand binds to a receptor following the law of mass action and is the slope expected of a dose–response curve when the second messenger created by receptor stimulation binds to its receptor by the law of mass action (https://graphpad.com/guides/prism/latest/curvefitting/reg_dr_inhibit.htm).

[3] = Solubility in PBS pH 7.4; type: physicochemical; details: PBS buffer, pH 7.4, PBS, 37 °C
Protocol: Solubility was tested after incubation of the test item at 200 μM and 500 μM in PBS buffer pH 7.4 starting from an initial DMSO solution of Dim22 100 mM. Samples in duplicates were incubated at 37 °C for 90 min, were then centrifuged at 12500 rpm for 5 min. Supernatants were analyzed in LC/MS together with a solution of the compound in ACN.

[4] = target: T2, HMG-CoAR (catalytic domain) (Homo sapiens, UniProt P04035); assay: HMG-CoAR activity assay (Sigma kit, NADPH oxidation at 340 nm); type: biochemical; details: 10–500 μM tested, 37 °C
T2 construct: and finally, HMG-CoAR (catalytic domain) (2 μL); purchased Sigma Aldrich
T2 sequence (P04035 426-888 limits assumed): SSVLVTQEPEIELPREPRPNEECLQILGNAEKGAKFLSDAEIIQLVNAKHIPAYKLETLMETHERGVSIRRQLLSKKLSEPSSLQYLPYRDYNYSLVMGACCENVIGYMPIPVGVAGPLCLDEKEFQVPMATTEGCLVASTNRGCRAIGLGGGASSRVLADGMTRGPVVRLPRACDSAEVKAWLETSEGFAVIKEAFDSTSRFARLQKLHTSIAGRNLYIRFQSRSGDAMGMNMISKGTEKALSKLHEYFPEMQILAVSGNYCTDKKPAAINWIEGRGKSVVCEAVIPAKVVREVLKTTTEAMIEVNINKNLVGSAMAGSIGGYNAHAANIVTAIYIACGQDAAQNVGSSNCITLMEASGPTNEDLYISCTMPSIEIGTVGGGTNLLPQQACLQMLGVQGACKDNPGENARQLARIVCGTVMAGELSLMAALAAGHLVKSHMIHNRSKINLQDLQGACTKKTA
Protocol: The experiments were carried out following the manufacturer’s instructions and optimized protocol.[43] The assay buffer, NADPH, substrate solution, and HMG-CoAR were provided in the HMG-CoAR Assay Kit (Sigma Aldrich SRL, Milan, Italy). The experiments were carried out following the manufacturer’s instructions at 37 °C. In particular, each reaction (200 μL) was prepared adding the reagents in the following order: 1× assay buffer, a 10–500 μM dose of sonicated Dim analogues or vehicle (C), NADPH (4 μL), the substrate solution (12 μL), and finally, HMG-CoAR (catalytic domain) (2 μL). Subsequently, the samples were mixed, and the absorbance at 340 nm was read by a microplate reader (Synergy H1, Winooski, VT, USA) at times of 0 and 10 min. The HMGCoAR-dependent oxidation of NADPH and the inhibition properties of the peptides were measured by absorbance reduction, which is directly proportional to enzyme activity.

[5] = Metabolic stability in mouse liver microsomes (with UDPGA); details: for Cli: mouse liver microsomes 0.5 mg/mL, 5 μM, cofactors + UDPGA (Phase II stability)
Protocol: (§1) After the pre-incubation period, the reaction was started by adding the cofactor mixture (NADP, Glc6P, and Glc6P-DH in 2% sodium bicarbonate) and UDPGA. Samples (25 μL) were taken at times of 0, 10, 20, 30, 45, and 60 min and then mixed with 150 μL of ACN to stop the reaction. After centrifugation, the supernatants were analyzed by LC–MS/MS. A control sample without cofactors was included in the assay in order to check the stability of the test compounds in the matrix after 60 min. 7-Ethoxycoumarin (7-EC) and 7-hydroxycoumarin (7-OHC) were contemporarily tested as reference standards for the Phase I and Phase II reactions, respectively.

[6] = Metabolic stability in human liver microsomes (with UDPGA); details: for Cli: human liver microsomes 0.5 mg/mL, 5 μM, cofactors + UDPGA (Phase II stability)
Protocol: as §1

[7] = target: T2, HMG-CoAR (catalytic domain); parameters: method as in doi:10.1016/j.jff.2017.02.009; details: cited from earlier work

In the case of `Cn1cnc(-c2ncc(-c3nc(-c4ncc(-c5ccccc5)n4C)cn3C)n2C)c1` [MeIm], the “IC50 value (PCSK9–LDLR interaction)” value ([1]; in words) is given as “low-micromolar range”.

For `CNCCCCCn1cncc1-c1nc(-c2ncc(-c3ccc(OC)cc3)n2C)cn1Cc1ccccc1` [Rim13], the “affinity with PCSK9” value ([1]; in words) is given as “low micromolar affinity” and the IC50 ([1]; read-out: PCSK9/LDLR interaction IC50) is given as 1.6 µM and ~1 µM.

`CNCCCCCn1c(-c2ncc(-c3ccc4ccccc4c3)n2CC2CCCCC2)cnc1I` [Dim22, 5-(1-(Cyclohexylmethyl)-2′-iodo-5-(naphthalen-2-yl)-1H,3′H-[2,4′-biimidazol]-3′-yl)-N-methylpentan-1-amine] showed an IC50 [2] of 1.99 ± 2.86 µM, a solubility at 90 min [3] of roughly 10 µM (≈ 5.82 µg/mL) and a solubility at 1.5 h ([3]; 90 min) of 5.8 µg/mL (≈ 9.97 µM). The IC50 [4] was 36.2 ± 5.98 µM, the “NADPH dependence of the observed metabolism” value ([5]; mice) was “NADPH-dependent” and the Cli [5] was 57.0 μL/min/mg protein. For the same compound, the clearance classification ([5]; mouse liver microsomes, classification of Table S4) was “medium–high”, the Cli [6] was 51.5 μL/min/mg protein and the clearance classification ([6]; human liver microsomes, classification of Table S4) was “medium–high”. For the same compound, the “non-NADPH-dependent part of the observed metabolism” value ([6]; humans) was 50%.

For “LILPKHSDAD [P5, peptide P5 derived from lupin proteins]”, the IC50 [7] is listed as 147 µM and the IC50 ([1]; read-out: PCSK9/LDLR PPI IC50) is listed as 1.6 µM.

In the case of `C#Cc1ncc(-c2ncc(-c3ccc4ccccc4c3)n2CC2CCCCC2)n1CCCCCNC` [Dim23, 5-(1-(Cyclohexylmethyl)-2′-ethynyl-5-(naphthalen-2-yl)-1H,3′H-[2,4′-biimidazol]-3′-yl)-N-methylpentan-1-mine], the IC50 [2] is reported as 1.18 ± 1.06 µM and the “HMG-CoAR activity IC50” value [4] is reported as “not active”.

In the case of `O=c1ccc2ccc(O)cc2o1` [7-OHC, 7-hydroxycoumarin, reference compound], the Cli [5] is reported as 533.3 μL/min/mg protein and the Cli [6] is reported as 390.0 μL/min/mg protein.

Work on `CNCCCCCn1cncc1-c1ncc(-c2ccc3ccccc3c2)n1CC1CCCCC1` [Dim21, 5-(1-(Cyclohexylmethyl)-5-(naphthalen-2-yl)-1H,3′H-[2,4′-biimidazol]-3’-yl)-N-methylpentan-1-amine] yielded an IC50 [2] of 4.5 ± 0.5 µM and an IC50 [4] of 38.4 ± 12.7 µM.

Compound `CCOc1ccc2ccc(=O)oc2c1` [7-EC, 7-Ethoxycoumarin, reference compound] has a Cli [5] of 290.9 μL/min/mg protein and a Cli [6] of 46.1 μL/min/mg protein.

In the case of `CNCCCCCn1cncc1-c1nc(-c2ncc(-c3ccc(OC)cc3)n2C)cn1CCc1ccccc1` [RIm14], the “affinity with PCSK9” value ([1]; in words) is listed as “low micromolar affinity”.

With `CNCCCCCn1cncc1-c1ncc(-c2ccc3ccccc3c2)n1CCCC(C)(C)C` [Dim2, 5-(1-(4,4-Dimethylpentyl)-5-(naphthalen-2-yl)-1H,3′H-[2,4′-biimidazol]-3′-yl)-N-methylpentan-1-amine] the IC50 [2] was 1.99 ± 1.65 µM, the “PCSK9 activity, times less active than Dim16” value ([2]; ratio versus Dim16) was “about 2500” and the IC50 [4] was 40.5 ± 15.2 µM.
